Data on 3 compounds can be found in patent US20060228384A1, “Control of biofilm with a biofilm inhibitor” (Sequoia Sciences, Inc., priority 2005, published 2006).

In one data set the test system is biofilm. As to the kind of experiment: Biofilm Inhibition Assay (compound library screening and analogs, methods as in Example 1). In kind it is cell-based. The conditions noted are these: tested as mentioned in Example 1. The source says: As is evident from the Biofilm Inhibiton Assay results presented in Table 1, one compound from Hit 39, SF382 confirmed biofilm inhibition after purification. […] Thus, the percentage of bacteria attached (within the biofilm) versus free-floating compared to untreated (negative) control has shifted toward free-floating upon addition of the treatment. Compound SF382 was particularly active, reducing the formation of biofilm by 50% compared to negative control. Compound SF382 is represented by structure (I).
(§1) In vitro biofilm inhibition was evaluated using a high-throughput method. This method uses standard pre-sterilized 96-well polystyrene microtiter plates. Each well was filled to a final volume of 200 μl. Initially, a concentrated compound solution is transferred into each well, except those which are used as controls, to achieve an appropriate testing concentration, typically 10 μg/ml. 150 μl of sterile media was then added, followed by 50 μl of bacterial inoculum. The plates were then placed on a shaker for 24 hours.
After the allotted growth time, the samples were removed from the shaker, rinsed and stained. The rinse involves first draining the wells, filling each well with PBS, and draining each well again. The rinse removes suspended cells from the system. […] The plate was then immediately analyzed with a microtiter plate reader. The samples and controls were analyzed in triplicate. […]

A further data set has as its system Propionibacterium acnes. The conditions noted are these: each compound alone; cited from earlier work.
Data set [1] has as its system Pseudomonas aeruginosa PA01. The data set is described as follows: In vitro biofilm inhibition, 96-well plate, crystal violet (Example 1). Format: cell-based. The following applies: 10 μg/mL, 24 hours. On the procedure: as §1
(§2) After the allotted growth time, the samples were removed from the shaker, rinsed and stained. The rinse involves first draining the wells, filling each well with PBS, and draining each well again. The rinse removes suspended cells from the system. The biofilm was then stained with crystal violet for 20 minutes. The wells were each rinsed 4 times to remove any excess stain from the system and then eluted with 250 μl of ethanol. The elution step improves the detection of the stain during the analyses. The plate was then immediately analyzed with a microtiter plate reader. The samples and controls were analyzed in triplicate. Each plate contains negative and positive controls. The test samples were compared to the positive and negative controls to detect any reduction in the total amount of biofilm.

In data set [2] the test system is Staphylococcus epidermidis ATCC 29641. The data set is described as above. Format: cell-based. The following applies: ATCC29641, 10 μg/mL, 24 hours. The procedure:
as §1, §2

Another data set relates to Escherichia coli JM109. As to the kind of experiment: Biofilm formation and growth of wild-type E. coli JM109 (Example 2). In kind it is cell-based. The following applies: compared to controls. On the procedure:
(§3) Biofilm inhibition experiments were conducted using an assay adapted from the reported protocol described in Pratt and Kolter, 1998, Molecular Microbiology, 30: 285-293; Li et al., 2001, J. Bacteriol., 183: 897-908. E. coli JM109 was grown in LB with or without 0.2% glucose in 96 well plates at 37° C. for two days without shaking. To quantify the biofilm mass, the suspension culture was poured out and the biofilm was washed three times with water. The biofilm was stained with 0.1% crystal violet for 20 minutes. The plates were then washed three times with water. OD reading at 540 nm was measured to quantify the biofilm mass at the bottom of the wells. Then 95% ethanol was added to dissolve the dye at the bottom and on the wall and the OD reading at 540 nm was measured to quantify the total biofilm mass. To study the overall effect of palmitoleic acid (3.6 mg/mL in 100% ethanol as stock solution), it was added with the inoculation and a time course of biofilm mass was measured. To study if the compound can cause biofilm removal, it was added one day after inoculation. Appropriate amounts of 100% ethanol were added to each sample to eliminate the effect of solvent. Four plates were prepared for each study to give a time course. Each condition had 3-4 replicates on each plate.

For data set [3], the system named is methicillin-resistant Staphylococcus aureus 78-13607A. As to the kind of experiment: Antibacterial effect, NCCLS procedures (Example 3). In kind it is cell-based. The following applies: studied at 32 μg/mL, read-out: MIC (minimal inhibitory concentration). The procedure:
(§4) Using the appropriate NCCLS procedures, the antibacterial effect of palmitoleic acid on two strains of methicillin-resistant Staphylococcus aureus (ATCC 33591 and 78-13607A) was studied at 32 μg/mL.

For data set [4], the system named is methicillin-resistant Staphylococcus aureus ATCC 33591. The data set is described as follows: Antibacterial effect, NCCLS procedures (Example 3). The conditions noted are these: ATCC33591, studied at 32 μg/mL, read-out: MIC (minimal inhibitory concentration). Format: cell-based. On the procedure: as §4
The next data set concerns Escherichia coli UTI89. The data set is described as follows: Biofilm inhibition dose response, clinical strain (Example 4). In kind it is cell-based. The conditions noted are these: LB media, compared to controls. On the procedure: as §3
Dose response experiments were conducted on palmitoleic acid as described in Example 2 at 4, 8, 16, and 32 ug/mL with E. coli UT189 in LB media.

Data set [5] has as its system Pseudomonas aeruginosa strain PAO1. As to the kind of experiment: Rotating disk reactor biofilm with tobramycin, CFU enumeration (Example 5). The following applies: palmitoleic acid approx. 100 μg/ml 24 h then tobramycin 100 μg/ml 2 h; combined treatment compared to tobramycin alone. Format: cell-based. On the procedure:
Biofilm formation of P. aeruginosa was evaluated using a standardized biofilm method with a rotating disk reactor (RDR). This method provides a model resembling the formation of biofilms in cystic fibrosis patients. The rotating disk reactor consists of a one-liter glass beaker fitted with a drain spout. The bottom of the vessel contains a magnetically driven rotor with six 1.27 cm diameter coupons constructed from polystyrene. The rotor consists of a star-head magnetic stir bar upon which a disk was affixed to hold the coupons. The vessel with the stir bar was placed on a stir plate and rotated to provide fluid shear. A nutrient solution (AB Trace Medium with 0.3 mM glucose, see Table 3 below for composition) was added through a stopper in the top of the reactor at a flow rate of 5 ml/min. The reactor volume was approximately 180 ml and varied slightly between reactors depending on the placement of the drain spout and the rotational speed of the rotor. At a volume of 180 ml, the residence time of the reactors was 36 minutes. The reactors were operated at room temperature (c.a. 26° C.).
For each test, two RDRs were operated in parallel with one receiving palmitoleic acid and the other serving as an untreated control. […] The plates were incubated for 24 hours at 37° C. before colony forming units (CFU) were determined.

Data set [6] relates to human hepatocellular carcinoma cells (HepG2). As to the kind of experiment: In vitro cytotoxicity assessment (Example 7). In kind it is cell-based. The following applies: 30 or 60 μM, fluorometric detection of mitochondrial activity. The procedure:
Palmitoleic acid was tested to assess its cytotoxicity in human hepatocellular carcinoma cells (HepG2). Palmitoleic acid was tested at two concentrations of 30 and 60 μM in HepG2 cells in triplicate. Gross cytotoxicity was assayed by fluorometric detection in response to mitochondrial activity according to Nociari M M, et al. (1998) J. Immunol. Met. 213:157. Chlorpromazine was used as a positive control.

In data set [7] the test system is Streptococcus mutans 25175. The data set is described as follows: Biofilm growth inhibition in polycarbonate tubes (Example 8). Format: cell-based. The following applies: 80 μg/mL.
In data set [8] the test system is Streptococcus sobrinus 6715. Described as above. In kind it is cell-based. The following applies: 80 μg/mL.
A short description of data set [9]: In vivo PK study in rats (Example 9). The conditions noted are these: plasma. Further details: species or system rat. The procedure:
Two groups of animals were prepared to evaluate palmitoleic acid. Palmitoleic acid was evaluated for two dose routes consisting of 50 mg/kg (IV) and 100 mg/kg (Oral). Three animals were assigned to the IV route group and two animals were assigned to the oral route group. Prior to dosing, a baseline blood sample was taken from each animal. At time zero, a single bolus dose of palmitoleic acid in 10% Cremophor (BASF) was given to each animal. Blood samples were taken from each animal at 1, 4, 12 and 24 hours post dosing. All blood samples were processed to plasma.
The plasma samples were extracted by adding internal standard at a concentration of 10 μg/mL to achieve a final concentration of 2 μg/mL when reconstituted. A solution of 80:20 methanol:chloroform was used to cause protein precipitation. The samples were then vortexed and centrifuged. The supernatant was decanted and the solvent was evaporated off. Samples were then analyzed and quantified by LC/MS.

Another data set deals with Gram-positive bacteria. The conditions noted are these: cited from earlier work.
In data set [10] the test system is Gram-negative bacteria such as Pseudomonas aeruginosa, and Escherichia coli. The following applies: also P. acnes and several methicillin-resistant S. aureus strains; cited from earlier work.
A further data set concerns P. acnes. The following applies: 125 ug/ml; cited from earlier work.
In data set [11] the test system is clinical strains of Staphylococcus aureus. The conditions noted are these: 100 ug/ml; cited from earlier work.

The structures appear in SMILES notation.

Consider `CCCCCCCCCCCCCCCC(=O)O` [palmitic acid], for which the “inhibition of the formation of biofilms” value in the data set with biofilm is recorded as “does not inhibit the formation of biofilms”.

Turning to `Cc1ncc([N+](=O)[O-])n1CCO` [metranidazole, reference compound], in the data set with Propionibacterium acnes, the “growth inhibition, compound alone” value was “neither compound alone could effectively inhibit the growth”.

As a reminder, the inhibition is how much of the control response was suppressed. A low value points to a weak effect. For `CCCCCC/C=C\CCCCCCCC(=O)O` [palmitoleic acid], the figures for the inhibition at 10 µg/mL in data set [1] and in [2] were 55% and 80%, respectively. The “inhibition of total biofilm formation (reduction)” value with Escherichia coli JM109 (approximately 20 μM, added with inoculation) is given as “about 60%”. Further, in the data set on Escherichia coli JM109, the “inhibitory effect on growth” value was “no inhibitory effect”. The MIC in data set [3] and in data set [4] was greater than 32 µg/mL each time. In the data set with Escherichia coli UTI89 (4 μg/mL), this compound came in with an inhibition at 4 µg/mL of roughly 10%. In the data set with Escherichia coli UTI89 (8 μg/mL), this compound came in with an inhibition at 8 µg/mL of roughly 55%. Moreover, in the data set with Escherichia coli UTI89 (16 μg/mL), the inhibition at 16 µg/mL is roughly 70%. In addition, the inhibition at 32 µg/mL in the data set with Escherichia coli UTI89 (32 μg/mL) is roughly 80%. Besides, in data set [5], the “reduction of CFUs” value is 60%. Moreover, in [6], the cytotoxicity entry is “not observed”. For the same compound, the inhibition at 80 µg/mL in data set [7] and in [8] was greater than 75% throughout. For the same compound, the AUC in [9] (IV 50 mg/kg single bolus in 10% Cremophor) amounted to 123 µg/mL/h; in [9] (oral 100 mg/kg single dose in 10% Cremophor), 219.71 µg/mL/h. Also, the “typical minimal inhibitory concentration (MIC) value” with Gram-positive bacteria (growth of Gram-positive bacteria) was 10 to 20 µg/mL. Besides, in the data set with Gram-positive bacteria (palmitoleic acid and mupirocin against Gram-positive bacteria), the “synergistic effect with mupirocin” value is on record as “no synergistic effect was observed”. Besides, the growth inhibition result is “could not inhibit the growth” in data set [10] and “failed to inhibit the growth” with P. acnes. The inhibitory effect entry in data set [11] is “no inhibitory effect”. Further, the “growth inhibition, compound alone” value in the data set with Propionibacterium acnes is reported as “neither compound alone could effectively inhibit the growth”.
